The text below walks through data of patent US8142764B2, “Synthetic biofilm-inhibiting peptides” (priority 2008, dated 2012).

“Also recorded” adds a separate entry of the source. Where no end group is shown, it is not given here.

Data set [1] deals with P. gingivalis/S. gordonii biofilm. In words: Inhibition of P. gingivalis adherence and biofilm formation on S. gordonii (open flow cell, confocal microcolony count). The class given is cell-based, Porphyromonas gingivalis. As to conditions: for inhibition of biofilm formation: peptide 3.38 μM. The protocol:
P. gingivalis adherence and biofilm formation. The adherence of intact P. gingivalis to S. gordonii cells and the subsequent formation of biofilms was carried out using an open flow system essentially as previously described by Amorin Daep et al. Infect Immun 74:5756-62 (2006) and Lamont et al. Microbiology 148:1627-36 (2002). The flow reactor comprised a Manostat Carter 4/8 cassette peristaltic pump (Fisher Scientific, Suwanee, Ga.) using 0.89 millimeter platinum-cured silicone tubing (Fisher Scientific, Suwanee, Ga.) and a BST FC 71 flow cell (Biosurface Technologies, Corp, Bozeman, Mont.). A single surface of a 15×40 mm cover glass (Fisher Scientific, Suwanee, Ga.) was coated with 0.22 μm filter sterilized saliva and incubated at 37° C. for 30 minutes. The saliva coated coverglass was then washed with sterile 1×PBS at a flow rate of 6 ml per hour for 30 minutes to remove unbound salivary constituents.
S. gordonii DL-1 cells were harvested by centrifugation at 4000 rpm at 4° C. for 15 minutes and suspended in 25 ml of sterile 1×PBS. S. gordonii cells were labeled with 20 μl of hexidium iodide (1.6 mg/ml, Molecular Probes, Eugene, Oreg.) at 25° C. for 30 minutes in the dark and washed with PBS. Adherence of streptococci to the saliva coated cover glass was carried out by delivering S. gordonii cells to the flow chamber at a flow rate of 6 ml per hour for approximately 2 hours. Following inoculation with S. gordonii, the flow cell was washed with sterile 1×PBS for 30 minutes at 6 ml per hour to remove non-adherent bacteria from the cover glass.
P. gingivalis ATCC 33277 cells were harvested by centrifugation at 4000 rpm at 4° C. for 45 minutes, suspended in 25 ml of sterile 1×PBS, and introduced into the flow cell at a flow rate of 6 ml per hour for 2 hours at 25° C. to allow P. gingivalis to adhere and accumulate on the streptococcal substrate. Flow cells were subsequently washed with sterile 1×PBS to remove non-adherent P. gingivalis cells. To visualize adherent P. gingivalis, rabbit anti-P. gingivalis 33277 polyclonal antibody diluted 3:5000 in 5 ml of sterile 1×PBS was flowed into the cell at a rate of 6 ml per hour. The flow cell was then washed with sterile 1×PBS for 1 hour, reacted with anti-rabbit IgG fluorescein isothiocyanate (FITC) conjugate (Sigma, St. Louis, Mo.) in sterile 1×PBS (1:5000) for 1 hour at 6 ml per hour, and received a final wash with sterile 1×PBS as above. Under these conditions, the streptococci bound to the saliva coated coverglass as a non-confluent layer comprising single cells and small aggregates. P. gingivalis subsequently adhered to and formed distinct microcolonies on the immobilized streptococci. The microcolonies were visualized and quantified by confocal microscopy as described below.
Confocal microscopy and analysis of P. gingivalis biofilms. P. gingivalis-S. gordonii biofilms were visualized using an Olympus FluoView 500 confocal laser scanning microscope (Olympus, Pittsburgh, Pa.) under 600× magnification using an Argon laser for visualization of FITC labeling and the HeNe-G laser to visualize hexidium iodide labeled streptococci. The number and depth of FITC-labeled P. gingivalis microcolonies was determined from 30 to 60 randomly chosen frames using the FluoView software package provided by Olympus. Microcolony depth was determined by performing Z-plane scans from 0 μm to 30 μm above the coverglass surface. P. gingivalis microcolonies that formed on S. gordonii in the absence of peptide inhibitor ranged from 7 to 16 μm in depth under the experimental conditions used.
Inhibition of P. gingivalis adherence and bioflim formation. […] The P. gingivalis-peptide suspension was then introduced into the flow cell for 2 hours at a flow rate of 6 ml per hour as described above and P. gingivalis microcolonies were analyzed by confocal microscopy. Data was analyzed using GraphPad InStat3 (GraphPad Software Co.).

Data set [2] in a line: Circular dichroism (CD) spectroscopy, K2D secondary structure estimate. To be noted: 1.4 mM peptide in phosphate buffer. In kind it is physicochemical. The protocol: Circular dichroism (CD) spectroscopy. CD experiments were carried out at 25° C. using Jasco J-810 spectropolarimeter (Jasco, Easton, Md.). A 40 μl sample of peptide at a concentration of 1.4 mM in filter sterilized 0.1 M phosphate buffer (pH=7.2) was analyzed in a 0.01 cm quartz cuvette (Starna Cells, Inc., Atascadero, Calif.) using the following parameters: sensitivity=100 mdeg, start wavelength=340 nm, end wavelength=180 nm, continuous scanning mode at 200 nm/minute, response=1 second, and bandwidth=1 nm. Nitrogen was flushed into the system at a rate of […] during each experiment. A total of 10 scans were accumulated and averaged and the appropriate blanks were subtracted from the spectra. The resulting spectra were expressed in molar ellipticity. Normalized CD data were analyzed using K2D software (on the world-wide web at embl-heidelberg.de/˜andrade/k2d.html)) to estimate α-helical, β-sheet, and random coil content.

Data set [3] relates to proteolytic activity of P. gingivalis. In kind it is cell-based, Porphyromonas gingivalis. As to conditions: intact cells pre-treated with inhibitor. The source says:
Inhibition of protease activity. The proteolytic activity of P. gingivalis was inhibited using a bacterial protease inhibitor cocktail (Sigma, St. Louis, Mo.) containing the following inhibitors: 4-(2-Aminoethyl)benzenesulfonyl fluoride hydrochloride (AEBSF), N-(trans-epoxysuccinyl)-L-leucine 4 guanidinobutylamide (E-64), sodium ethylenediaminetetra-acetate (EDTA), bestatin and pepstatin A. The inhibitor cocktail was suspended in dimethylsulfoxide (DMSO) (Sigma, St. Louis, Mo.) at the concentration recommended by the manufacturer.

Data set [4] deals with proteases produced by P. gingivalis. Kind of data set: Proteolytic degradation of BAR by P. gingivalis cells, culture supernatant or extracts (tricine gel, densitometry). In kind it is in vitro ADME, Porphyromonas gingivalis. The protocol:
Proteolytic degradation of BAR by P. gingivalis. One milliliter of mid-exponential phase cultures of P. gingivalis SMF, P. gingivalis KDP128, P. gingivalis KDP129, or P. gingivalis E8 was centrifuged at 8000 rpm for 5 minutes at 4° C. The bacterial pellet was washed 3 times with 1 ml of sterile 1×PBS (100 mM sodium phosphate, pH 7.4, 150 mM NaCl). […] For some experiments, digital images of the stained gels were obtained using Epson Stylus CX3810 flatbed scanner (Espson America, Inc., Long Beach, Calif.) and analyzed by densitometry using ImageJ software (found on the world-wide-web at rsbweb.nih.gov/ij/).

The subject of data set [5] is P. gingivalis/S. gordonii biofilm. To be noted: 0.3 μM.
Experimental: P. gingivalis biofilm formation with S. gordonii. The formation of dual species P. gingivalis/S. gordonii biofilms was carried out essentially as previously described by Lamont et al (2002. Microbiology 148:1627-36.) and Daep et al. (Immun 74:5756-62 (2006); Infect Immun 76:3273-80 (2008)). The bacterial biofilms were cultured using a Manostat Carter 4/8 cassette peristaltic pump (Fisher Scientific, Suwanee, Ga.) with 0.89 millimeter platinum-cured silicone tubing (Fisher Scientific, Suwanee, Ga.) and BST FC 71 flow cells (Biosurface Technologies, Corp, Bozeman, Mont.). […]
P. gingivalis cells were harvested by centrifugation at 4000 rpm at 4° C. for 45 minutes, suspended in 20 ml of sterile 1×PBS, and introduced into the flow cell at a flow rate of 6 ml per hour for 2 hours to allow the bacteria to adhere and accumulate on the streptococcal substrate. […] P. gingivalis microcolonies bound to immobilized streptococci were quantified by confocal microscopy as described below.
The bacteria were incubated with 0 and 0.845 μM peptide at ambient temperature for 30 minutes and introduced into the flow cell containing an existing streptococcal substrate for 2 hours at a flow rate of 6 ml per hour. Biofilm formation was analyzed by confocal microscopy as described below. Data was analyzed using GraphPad InStat3 software (GraphPad Software Co.) using a non-parametric analysis of variance (ANOVA). […]
In a further data set the target is Mfa1 (Porphyromonas gingivalis, UniProt B2RHG1). As to conditions: read-out: dissociation constant of the BAR-Mfa1 interaction; previously calculated; cited from earlier work.
Chain of Mfa1 (B2RHG1 50-563): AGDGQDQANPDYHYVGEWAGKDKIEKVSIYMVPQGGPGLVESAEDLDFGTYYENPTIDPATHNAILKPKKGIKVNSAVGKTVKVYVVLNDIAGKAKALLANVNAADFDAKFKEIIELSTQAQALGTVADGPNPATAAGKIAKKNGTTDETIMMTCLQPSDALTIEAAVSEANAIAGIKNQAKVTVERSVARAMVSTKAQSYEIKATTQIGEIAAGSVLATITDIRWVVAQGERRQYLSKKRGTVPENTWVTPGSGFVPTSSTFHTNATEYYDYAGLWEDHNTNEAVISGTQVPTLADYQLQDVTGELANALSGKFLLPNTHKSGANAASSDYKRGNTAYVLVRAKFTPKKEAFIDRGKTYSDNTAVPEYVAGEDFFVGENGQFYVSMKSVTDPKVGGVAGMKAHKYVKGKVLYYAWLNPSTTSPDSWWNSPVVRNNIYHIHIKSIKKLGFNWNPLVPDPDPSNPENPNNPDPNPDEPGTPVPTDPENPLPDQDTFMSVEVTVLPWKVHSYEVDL

LEAAPKKVQDLLKKARITIKGAFQLFS [BAR-II]: the “biofilm inhibitory activity (in words)” value in data set [1] was “more potent inhibitor of P. gingivalis adherence and biofilm development than BAR”. The “fold difference in I50 / potency relative to BAR” value in data set [1] (I50 0.52 μM versus 1.25 μM) is recorded as “approximately 2.5 fold”. The IC50 in data set [1] (P. gingivalis pre-incubated with peptide, streptococcal substrate, read-out: I50 for inhibition of P. gingivalis adherence and biofilm formation) is 520 nM. For the same compound, the “inhibition of P. gingivalis microcolony formation” value was 25% in data set [1] (peptide 0.34 μM) and 82% in data set [1] (peptide 0.85 μM). In data set [2], the α-helix content is on record as 28%.
With `O=C([O-])CN(CCN(CC(=O)[O-])CC(=O)[O-])CC(=O)[O-].[Na+].[Na+].[Na+].[Na+]` [EDTA, sodium ethylenediaminetetra-acetate], the “concentrations that prevent cleavage of BAR by P. gingivalis (in words)” value in data set [3] was “mM range”.
Turning to `CC(C)C[C@H](NC(=O)[C@H]1O[C@@H]1C(=O)O)C(=O)NCCCCN=C(N)N` (relative stereo) [E-64, N-(trans-epoxysuccinyl)-L-leucine 4 guanidinobutylamide], the “concentrations that prevent cleavage of BAR by P. gingivalis (in words)” value in data set [3] is listed as “mM range”.
For `CC(C)C[C@H](NC(=O)[C@@H](O)[C@H](N)Cc1ccccc1)C(=O)O` [bestatin], in data set [3], the “concentrations that prevent cleavage of BAR by P. gingivalis (in words)” value is “mM range”.
For the compound `Cl.NCCc1ccc(S(=O)(=O)F)cc1` [AEBSF, 4-(2-Aminoethyl)benzenesulfonyl fluoride hydrochloride], the “concentrations that prevent cleavage of BAR by P. gingivalis (in words)” value in data set [3] is listed as “mM range”.
In the case of LQAAPKKVQDLLKKANITVKGAFQLFS [BAR-XIV], the “inhibitory activity compared to BAR (in words)” value in data set [1] (peptide 1.7 μM) is on record as “significant decrease in inhibitory activity”. For the same compound, the “restoration of inhibitory activity (in words)” value in data set [1] (peptide 17 μM) was “did not show partial or full restoration”.
In the case of LEAAPKKVQDLLKKANITVKGAFQLFS [BAR], the “inhibition of P. gingivalis microcolony formation” value in data set [1] (peptide 0.34 μM) stood at 3%; in data set [1] (peptide 0.85 μM), 7%. In data set [1] (peptide 1.7 μM), the “inhibition rate of P. gingivalis/S. gordonii biofilm formation” value was determined as 80%. Also, in data set [1], the “inhibition of biofilm formation” value was around 75%. Further, in data set [4] (5 μg BAR, wild type cells), the “degradation by P. gingivalis 33277 (in words)” value is on record as “immediate degradation”. In addition, the “degradation by P. gingivalis culture supernatant (in words)” value in data set [4] (5 μg peptide, 37° C., 0 to 60 minutes) is given as “more slowly degraded; also recorded: time dependent degradation”. In data set [4] (1 hour incubation, 10-20% Tris-Tricine gel), the “proteolytic cleavage by P. gingivalis culture extracts (in words)” value is given as “slowly degraded”. Moreover, the “relative density (R.D.) of remaining BAR peptide” value in data set [4] (E8 whole cells, within 5 minutes (first value of 'R.D.=32.5 vs. 21.6')) is on record as 32.5; in data set [4] (P. gingivalis SMF1 with rMfa1, T=5 minutes, loading control R.D.=61.07), 47.3; in data set [4] (P. gingivalis SMF1 with rMfa1, T=30 minutes, loading control R.D.=61.07) it was 8.2; in data set [4] (P. gingivalis SMF1 without rMfa1, T=5 minutes, loading control R.D.=61.07), −5.75; in data set [4] (P. gingivalis SMF1 without rMfa1, T=30 minutes, loading control R.D.=61.07), −20.32; in data set [4] (gingipain deficient P. gingivalis KDP128, T=5 minutes, loading control R.D.=115.85), 96.23. Further, in data set [4] (gingipain deficient P. gingivalis KDP128, T=10 minutes, loading control R.D.=115.85), the “relative density (R.D.) of remaining BAR peptide” value turned out to be 115.85. The “degradation by P. gingivalis E8 (lacks Arg-X gingipains), in words” value in data set [4] (intact cells) is “rapidly degraded; also recorded: immediate degradation”. Further, the “degradation by P. gingivalis KDP128 (lacks Lys-X and Arg-X gingipains), in words” value in data set [4] (intact cells) is listed as “Little degradation was observed after incubation for 10 minutes; also recorded: attenuated proteolytic activity against the peptide”. For the same compound, in data set [4] (intact cells), the “degradation by P. gingivalis KDP129 (lacks Lys-X gingipains), in words” value is recorded as “attenuated degradation; also recorded: Little degradation was observed”. Moreover, in data set [4] (pre-incubation with Mfa1), the “degradation by intact P. gingivalis cells in the presence of purified Mfa1 (in words)” value was “little degradation occurred after 5 minutes; also recorded: protection from proteolytic degradation”. In addition, in data set [4] (second value of 'R.D.=32.5 vs. 21.6', apparently wild type 33277, 5 minutes), the “relative density (R.D.) of remaining BAR peptide, comparator” value was 21.6. The “inhibitory activity on biofilm formation” value in data set [5] is around 50%. For the same compound, the Kd on Mfa1 was around 900 nM.
LEAAPKKVPGLLKKANITVKGAFQLFS [BAR-X]: the “inhibition of biofilm formation” value in data set [1] was around 15%.
